The results in this text go back to ChEMBL document CHEMBL1134504, “Synthesis and cytotoxic activity of 7-oxo-7H-dibenz[f,ij]isoquinoline and 7-oxo-7H-benzo[e]perimidine derivatives” (J Med Chem, 2001).

The structures appear in SMILES notation.

By IC50 is commonly meant the concentration needed to halve the response being measured. High values mean weaker potency in that assay, low ones greater potency in that assay.

In assay [1] the test system is Jurkat. Description: Inhibitory activity against Jurkat human leukemia cells. The format is functional, cell-based.
For assay [2], the system named is Lewis lung carcinoma cell line. Description: Inhibitory activity against Lewis lung carcinoma cells. Format: functional, cell-based. The note with it: Mus musculus.
Another assay relates to P388. Description: Inhibitory activity against P388 murine leukemia cells. The format is functional, cell-based. The note with it: Mus musculus.
Assay [3] has as its system Jurkat. Description: Ratio of IC50 against Jurkat human leukemia amsacrine-resistant cells (JLA) to Jurkat human leukemia cells (JLC). The format is functional.
The test system of assay [4] is Jurkat. Description: Ratio of IC50 against Jurkat human leukemia doxorubicin-resistant cells (JLD) to Jurkat human leukemia cells (JLC). Format: functional.

On to `CC[C@@]1(O)C(=O)OCc2c1cc1n(c2=O)Cc2cc3ccccc3nc2-1` [CAMPTOTHECIN], for which the figures for the IC50 (in the assay on Jurkat [1]; in assay [2]; in the assay with P388) were 0.0056 µM, 0.033 µM and 0.013 µM, respectively. For the same compound, the results for the IC50 ratio in the assay with Jurkat [3] and with Jurkat [4] were 2 and 1.4, respectively.

As for `CN(C)CC(CN(C)C)c1cc2c3c(cccc3n1)C(=O)c1ccccc1-2`, the IC50 with Jurkat [1] was 0.55 µM; in assay [2], 0.098 µM; with P388, 0.11 µM. Further, the IC50 ratio in the assay on Jurkat [3] is 0.8; with Jurkat [4] it was 1.

In the case of `CN(C)CC/N=C/c1cc2c3c(cccc3n1)C(=O)c1ccccc1-2`, the figures for the IC50 (in the assay with Jurkat [1]; in assay [2]; in the assay with P388) were 3.36 µM, 2.48 µM and 6.2 µM, respectively. In addition, the values for the IC50 ratio with Jurkat [3] and in the assay on Jurkat [4] were 0.6 and 0.8, respectively.

For the compound `CN(C)CCNC(=O)c1cc2c3c(ccc(Cl)c3n1)C(=O)c1c(C(=O)NCCN(C)C)cccc1-2`, the results for the IC50 (with Jurkat [1]; in assay [2]; in the assay on P388) were 0.8 µM, 0.2 µM and 5.8 µM, respectively. The IC50 ratio in the assay with Jurkat [3] is reported as 0.9; in the assay on Jurkat [4] it was 1.6.

Turning to `O=C1c2ccccc2-c2cc(/C=N/NC3=NCCN3)nc3cccc1c23`, the figures for the IC50 (with Jurkat [1]; in assay [2]; with P388) were 0.422 µM, 0.83 µM and 0.34 µM, respectively. Besides, the IC50 ratio in the assay with Jurkat [3] stood at 1; in the assay on Jurkat [4] it was 1.1.

As to `COc1cc(NS(C)(=O)=O)ccc1Nc1c2ccccc2nc2ccccc12` [AMSACRINE], the IC50 ratio in the assay with Jurkat [3] turned out to be 85; with Jurkat [4], 74.

In the case of `CN(C)CCNC(=O)c1cc2c3c(cccc3n1)C(=O)c1cccc(Cl)c1-2`, the IC50 was 0.238 µM with Jurkat [1], 0.128 µM in assay [2] and 0.13 µM in the assay with P388. In addition, the IC50 ratio is 0.7 in the assay on Jurkat [3] and 0.8 in the assay with Jurkat [4].

As to `CN(C)CCNC(=O)c1nc2c3c(cccc3n1)C(=O)c1ccccc1-2`, the IC50 was found to be 1.24 µM with Jurkat [1], 1.03 µM in assay [2] and 1.5 µM in the assay on P388. The results for the IC50 ratio in the assay on Jurkat [3] and in the assay on Jurkat [4] were 1 and 0.9, respectively.

Take `CN(C)CCc1cc2c3c(cccc3n1)C(=O)c1ccccc1-2`: the IC50 in the assay with Jurkat [1] is 1.01 µM; in assay [2], 0.887 µM; in the assay on P388 it was 2.3 µM. Also, the IC50 ratio with Jurkat [3] and with Jurkat [4] was 0.8 in each case.

In the case of `Cc1cc2c3c(cccc3n1)C(=O)c1c(C(=O)NCCN(C)C)cccc1-2`, the IC50 in the assay on Jurkat [1] was 1.42 µM; in assay [2] it was 1.79 µM; in the assay on P388, 6.6 µM. For the same compound, the IC50 ratio in the assay on Jurkat [3] turned out to be 1; in the assay with Jurkat [4] it was 1.1.

With `CN(C)CCNc1nc2c3c(cccc3n1)C(=O)c1ccccc1-2`, the IC50 turned out to be 0.86 µM with Jurkat [1], 0.525 µM in assay [2] and 1 µM with P388. Further, the IC50 ratio in the assay on Jurkat [3] and in the assay with Jurkat [4] was 0.7 each time.

As to `CN(C)CCNc1cc2c3c(cccc3n1)C(=O)c1ccccc1-2`, the IC50 is 1.16 µM with Jurkat [1], 1.08 µM in assay [2] and 1.3 µM in the assay on P388. Also, the IC50 ratio in the assay on Jurkat [3] came out at 0.8; in the assay with Jurkat [4] it was 0.9.

With `Cc1cc2c3c(cccc3n1)C(=O)c1cccc(C(=O)NCCN(C)C)c1-2`, the figures for the IC50 (in the assay on Jurkat [1]; in assay [2]; in the assay with P388) were 0.424 µM, 0.101 µM and 0.1 µM, respectively. In addition, the IC50 ratio in the assay with Jurkat [3] and in the assay on Jurkat [4] was 2.5 each time.

For `Cc1cc2c3c(ccc(C(=O)NCCN(C)C)c3n1)C(=O)c1ccccc1-2`, the IC50 turned out to be 0.717 µM with Jurkat [1], 0.717 µM in assay [2] and 0.89 µM in the assay with P388. Moreover, the IC50 ratio with Jurkat [3] is on record as 1.2; in the assay on Jurkat [4], 1.

For the compound `CN(C)CCNC(=O)c1cc2c3c(cccc3n1)C(=O)c1ccccc1-2`, the IC50 in the assay with Jurkat [1] came out at 0.165 µM; in assay [2], 0.035 µM; in the assay on P388 it was 0.6 µM. The IC50 ratio in the assay on Jurkat [3] stood at 0.2; in the assay on Jurkat [4], 0.8.

In the case of `CN(CCNC(=O)c1cc2c3c(cccc3n1)C(=O)c1ccccc1-2)CCN(C)CCNC(=O)c1cc2c3c(cccc3n1)C(=O)c1ccccc1-2`, the IC50 turned out to be 0.566 µM in the assay with Jurkat [1], 0.472 µM in assay [2] and 0.79 µM in the assay on P388. The IC50 ratio in the assay on Jurkat [3] was determined as 0.2; in the assay with Jurkat [4] it was 0.8.

Consider `CN(C)CCNC(=O)c1cc2c3c(cccc3n1)C(=O)c1c(Cl)cccc1-2`, for which the IC50 in the assay on Jurkat [1] amounted to 0.758 µM; in assay [2], 0.483 µM; in the assay on P388, 0.8 µM. Also, the IC50 ratio in the assay on Jurkat [3] was 1; with Jurkat [4] it was 0.9.
